We go through 44 compounds from a melting point compilation (Tetko et al.).

Compound `Cc1cc(C)n(-c2ccc(C(N)=NO)cn2)n1` registered a melting point of 139 to 141 °C.

As for `Cc1cc(C)cc(C(=O)/C=C2\NC(=O)CS2)c1`, the melting point lay in the range of 163 to 165 °C.

As for `CC(Cl)C(=O)Nc1ccc(I)cc1` (centres undefined), the melting point lay within 159 to 161 °C.

As to `O=C(Nc1ccccn1)c1cc2ccccc2cc1O`, the melting point lay in the range of 236 to 238 °C.

As to `O=C(O)c1ccc(-n2ncc(Cl)c(Cl)c2=O)cc1`, the melting point fell in the range of 314 to 316 °C.

`O=C(O)CCCc1ccc2ccccc2c1`: the melting point was in the range of 91 to 93 °C.

For `O=C(O)CSCc1cc(-c2cccs2)on1`, the melting point is 113 to 115 °C.

For `NNc1cccc(C(F)(F)F)n1`, the melting point was in the range of 62 to 64 °C.

`Clc1nccc(N2CCCC2)n1` showed a melting point of 121 to 123 °C.

In turn, `Cn1c(-c2ccccc2)cnc1SCC(=O)O` registered a melting point of 199 to 201 °C.

As for `CC(C)Oc1ccc([N+](=O)[O-])cc1CBr`, the melting point is 69 to 71 °C.

On to `CC(=O)Nc1cccc2c1NCCC2`, for which the melting point is 108 to 110 °C.

Compound `O=C(Nc1cccnc1)OCC(F)(F)F` registered a melting point of 140 to 142 °C.

Compound `CCCOc1ccc(N)cc1Cl` registered a melting point of 49 to 51 °C.

In turn, `CCc1oc(C(=O)O)cc1C` returned a melting point of 133 to 135 °C.

Compound `O=C(O)/C=C/c1ccc(N2CCCS2(=O)=O)cc1` had a melting point of 252 to 254 °C.

In turn, `NNc1ncnc2cc(-c3ccc(F)cc3)sc12` had a melting point of 237 to 239 °C.

In turn, `COc1cccc(-c2n[nH]cc2C=O)c1` yielded a melting point of 91 to 93 °C.

The compound `CNS(=O)(=O)c1ccc(Sc2ccccc2C(=O)O)cc1` yielded a melting point of 199 to 201 °C.

Take `N#CCc1cccc(C(=O)O)c1`: the melting point lay in the range of 166 to 168 °C.

As for `O=C1CCCC(N2C(=O)c3ccccc3C2=O)C1` (centres undefined), the melting point was in the range of 147 to 149 °C.

The compound `Nc1ccc(Oc2ccc(F)cc2)c2ccncc12` displayed a melting point of 149 to 151 °C.

For `COc1ccc(NC(=O)C=CC(=O)O)cc1OC`, the melting point is 119 to 121 °C.

In turn, `COc1ccc(C(=O)O)cc1S(=O)(=O)N1CC(C)CC(C)C1` (centres undefined) returned a melting point of 262 to 264 °C.

Turning to `Cc1oc2[nH]c(=O)n(-c3ccccc3)c(=O)c2c1C(=O)O`, the melting point fell in the range of 289 to 291 °C.

`O=C1NC(=O)N(CCc2cccs2)C1=O` registered a melting point of 118 to 120 °C.

On to `Cc1ccc(-c2ccccc2C(=O)O)cc1`, for which the melting point is 146 to 148 °C.

`CN(C(=O)c1ccc(Br)o1)c1ccccc1C(=O)O` yielded a melting point of 167 to 169 °C.

`Clc1cnc2ccccc2n1` gave a melting point of 47 to 50 °C.

Compound `COC(=O)c1cc(N)cc(Cl)c1` registered a melting point of 95 to 97 °C.

In turn, `N#Cc1cnc2ccc(Cl)cc2c1Cl` yielded a melting point of 129 to 131 °C.

Regarding `N#Cc1cccc(OCC(F)(F)F)n1`, the melting point lay within 51 to 53 °C.

With `O=Cc1cc(Br)ccc1OCc1ccccn1`, the melting point fell in the range of 138 to 140 °C.

For the compound `CN(C)C(=O)COc1ccccc1C(=O)O`, the melting point lay within 127 to 129 °C.

`Nc1ccc(-c2cn3ccsc3n2)cc1` returned a melting point of 199 to 201 °C.

`O=C(O)C1CC(=O)N(CCOc2ccccc2Cl)C1` (centres undefined) gave a melting point of 138 to 140 °C.

Turning to `SCCCNc1ncccn1`, the melting point is 45 to 47 °C.

Regarding `CN(C)c1ccc([N+](=O)[O-])cc1C(=O)O`, the melting point lay within 149 to 151 °C.

`CS(=O)(=O)c1cc(C(=O)O)cc([N+](=O)[O-])c1`: the melting point fell in the range of 229 to 231 °C.

`O=C(O)c1cnn2cccnc12`: the melting point is 203 to 205 °C.

In turn, `Nc1ccc(N2CCCCC2)c2ccncc12` registered a melting point of 149 to 151 °C.

`OC(CC1COCCN1)c1ccco1` (centres undefined) returned a melting point of 84 to 86 °C.

`NC(=O)C1CCOC1` (centres undefined) gave a melting point of 109 to 111 °C.

`NC(=O)C=Cc1cccnc1` came in with a melting point of 149 to 151 °C.
